According to article PMC3914206:

What was measured:
panel of 442 kinases [1] = target: T1, panel of 442 kinases (Homo sapiens, UniProt O15197); format: binding; conditions: Compound Concentration 10 µM
T1 construct: purchased KINOMEscan
T1 sequence (O15197 32-1021): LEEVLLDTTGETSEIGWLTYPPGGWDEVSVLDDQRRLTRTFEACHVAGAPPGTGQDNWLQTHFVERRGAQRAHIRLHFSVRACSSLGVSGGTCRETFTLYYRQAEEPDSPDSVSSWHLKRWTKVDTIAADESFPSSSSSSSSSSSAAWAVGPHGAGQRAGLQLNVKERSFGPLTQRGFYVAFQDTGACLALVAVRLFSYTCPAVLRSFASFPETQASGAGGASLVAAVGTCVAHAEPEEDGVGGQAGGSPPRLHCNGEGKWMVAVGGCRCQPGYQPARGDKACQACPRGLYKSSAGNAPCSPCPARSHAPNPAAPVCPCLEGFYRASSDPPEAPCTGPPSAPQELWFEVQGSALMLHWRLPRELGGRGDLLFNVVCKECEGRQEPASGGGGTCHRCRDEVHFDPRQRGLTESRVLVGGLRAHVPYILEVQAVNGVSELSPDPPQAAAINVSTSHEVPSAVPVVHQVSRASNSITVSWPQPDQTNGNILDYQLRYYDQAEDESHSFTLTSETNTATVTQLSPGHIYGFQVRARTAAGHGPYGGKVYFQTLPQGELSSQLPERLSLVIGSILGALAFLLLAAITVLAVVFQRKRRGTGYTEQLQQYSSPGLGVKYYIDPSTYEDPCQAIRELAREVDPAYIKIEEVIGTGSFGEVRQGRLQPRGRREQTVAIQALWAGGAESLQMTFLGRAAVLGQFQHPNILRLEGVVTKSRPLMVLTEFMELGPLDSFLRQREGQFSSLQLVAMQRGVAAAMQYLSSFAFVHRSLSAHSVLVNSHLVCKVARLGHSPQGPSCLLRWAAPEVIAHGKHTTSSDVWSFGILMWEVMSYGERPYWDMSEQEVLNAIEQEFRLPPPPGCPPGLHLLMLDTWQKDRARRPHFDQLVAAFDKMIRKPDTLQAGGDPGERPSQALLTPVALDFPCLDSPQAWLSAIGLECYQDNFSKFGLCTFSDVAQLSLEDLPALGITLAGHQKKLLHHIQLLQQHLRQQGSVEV
Excerpt: (§1) We assessed the selectivity of members of this scaffold using the KINOMEscan methodology across a near comprehensive panel of 442 kinases [[18,27]].

panel of 442 kinases [2] = target: T2, panel of 442 kinases (Homo sapiens, UniProt Q9UBF8); format: binding; conditions: Compound Concentration 10 µM
T2 construct: purchased KINOMEscan
T2 sequence (Q9UBF8 whole entry): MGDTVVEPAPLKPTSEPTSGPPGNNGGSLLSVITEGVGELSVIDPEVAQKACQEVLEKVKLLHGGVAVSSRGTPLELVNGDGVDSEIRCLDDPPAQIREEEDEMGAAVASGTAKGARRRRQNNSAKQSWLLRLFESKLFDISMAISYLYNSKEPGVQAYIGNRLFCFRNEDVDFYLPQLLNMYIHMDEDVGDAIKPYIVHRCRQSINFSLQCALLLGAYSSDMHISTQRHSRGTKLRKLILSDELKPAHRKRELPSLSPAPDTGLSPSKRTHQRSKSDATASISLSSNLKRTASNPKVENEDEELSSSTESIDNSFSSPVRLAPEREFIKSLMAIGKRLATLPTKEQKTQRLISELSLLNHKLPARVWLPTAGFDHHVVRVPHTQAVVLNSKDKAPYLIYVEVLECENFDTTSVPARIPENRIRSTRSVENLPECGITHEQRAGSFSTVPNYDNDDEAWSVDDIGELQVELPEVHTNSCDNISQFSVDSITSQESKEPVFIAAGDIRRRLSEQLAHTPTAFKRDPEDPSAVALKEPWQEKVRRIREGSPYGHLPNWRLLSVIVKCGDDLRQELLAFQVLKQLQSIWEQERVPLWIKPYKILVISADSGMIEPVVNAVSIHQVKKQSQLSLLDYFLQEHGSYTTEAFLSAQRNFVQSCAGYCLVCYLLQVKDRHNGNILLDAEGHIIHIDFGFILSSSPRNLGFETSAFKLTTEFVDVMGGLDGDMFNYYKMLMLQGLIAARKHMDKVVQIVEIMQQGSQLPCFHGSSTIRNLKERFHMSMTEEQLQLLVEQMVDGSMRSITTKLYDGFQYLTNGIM
Excerpt: as §1

| SMILES | KINOMEscan: EPHB6 (panel of 442 kinases [1]) | KINOMEscan: PIK4CB (panel of 442 kinases [2]) |
| --- | --- | --- |
| COc1cc(C(=O)N2CCC(N3CCN(C)CC3)CC2)ccc1Nc1ncc2c(n1)N(C1CCCC1)c1ccccc1C(=O)N2C [Compound 25, 11-cyclopentyl-2-((2-methoxy-4-(4-(4-methylpiperazin-1-yl)piperidine-1-carbonyl)phenyl)amino)-5-methyl-5H-benzo[e]pyrimido[5,4-b][1,4]diazepin-6(11H)-one] | 69 | 100 |
| CCOc1cc(C(=O)N2CCC(N3CCN(C)CC3)CC2)ccc1Nc1ncc2c(n1)N(C1CCCC1)c1ccccc1C(=O)N2C [Compound 26] | 100 | 100 |
| COc1cc(C(=O)N2CCC(N3CCN(C)CC3)CC2)ccc1Nc1ncc2c(n1)N1CCc3cccc(c31)C(=O)N2C [Compound 24] | 68 | – |
| COc1cc(C(=O)N2CCC(N3CCN(C)CC3)CC2)ccc1Nc1ncc2c(n1)N(C)c1ccccc1C(=O)N2C [15 (LRRK2-IN-1)] | 31 | 95 |
